# Values of other authors, collected in patent US20100056426A1, “USE OF IRON CHELATOR FOR THE TREATMENT OF MYOCARDIAL INFARCTION” (NOVARTIS AG, priority 2007, published 2010).
# Where two headings read alike, the source gives them in different places.
# How the values were obtained:
# [1] = model systems; Hershko et al., Blood 2001
# [2] = humans; Nisbet Brown et al., Lancet 2003
compound,measurement,setting,value
"O=C(O)c1ccc(-n2nc(-c3ccccc3O)nc2-c2ccccc2O)cc1 [4-[3,5-bis-(2-hydroxyphenyl)-[1,2,4]-triazol-1-yl]benzoic acid]",selective removal of iron,[1],effective in the selective removal of iron
same,selective removal of iron,[2],effective in the selective removal of iron
